Assay results from patent US20110306598A1, “Use of the association of a sinus node if current inhibitor and an angiotensin-converting enzyme inhibitor in the treatment of heart failure” (LES LABORATOIRES SERVIER, priority 2010, published 2011).
Marks after values point to notes of the source that are not given here.

Tests used:
[1] = tested on: rats with heart failure (left coronary artery ligature); assay: Same rat heart failure model; ivabradine, perindopril or their association; format: in vivo; conditions: HF rats
Protocol: (§1) Heart failure was induced in rats by ligature of the left coronary artery (the control animals undergo an operation but are not ligated), which causes ischaemia of part of the wall of the left ventricle. The animals recuperate for 7 days and then, for 12 weeks, they are given either 3 mg/kg of compound A, or 0.4 mg/kg of perindopril, or perindopril and compound A concomitantly.
This effect on systolic function and diastolic function was then studied using the association of perindopril and a different If current inhibitor, ivabradine.

[2] = tested on: rats with heart failure (left coronary artery ligature); assay: Heart failure induced in rats by ligature of the left coronary artery; compound A, perindopril or both for 12 weeks; format: in vivo, rat; conditions: HF rats; for LVEDPVR: compliance of LV; for LVEDPVR / LVEDP / LVESP / LVESPVR / cardiac output / dP/dtmax / dP/dtmin / shortening fraction (% of the diameter of the LV) / Heart rate / tau: compound A 3 mg/kg, perindopril 0.4 mg/kg; for LVEDPVR / LVEDP / LVESP / LVESPVR / cardiac output / dP/dtmax / dP/dtmin / shortening fraction (% of the diameter of the LV) / tau: 12 weeks; for tau: relaxation time
Protocol: as §1

[3] = Table 4B, ivabradine on its own

| SMILES | effect on compliance of the left ventricle, measured by LVEDPVR (in words) [2] | effect on end diastolic pressure and relaxation time (in words) [2] | effect on systolic function, seen from the LVESPVR (in words) [2] | LVEDPVR [2] | LVEDP [2] | LVESP [2] | LVESPVR [2] | cardiac output [2] | dP/dtmax [2] | dP/dtmin [2] | shortening fraction (% of the diameter of the LV) [2] | Heart rate ([2]; duration of treatment 4 weeks) | Heart rate ([2]; duration of treatment 12 weeks) | tau [2] | also measured |
| --- | --- | --- | --- | --- | --- | --- | --- | --- | --- | --- | --- | --- | --- | --- | --- |
| COc1cc2c(cc1OC)CC(=O)N(CCCN(C)C[C@H]1Cc3cc(OC)c(OC)cc31)CC2 [ivabradine, 3-{3-[{[(7S)-3,4-dimethoxybicyclo[4.2.0]octa-1,3,5-trien-7-yl]-methyl}(methyl)amino]propyl}-7,8-dimethoxy-1,3,4,5-tetrahydro-2H-3-benzazepin-2-one] | – | – | – | – | – | – | – | – | – | – | – | – | – | – | effect on diastolic dysfunction (in words) [1]: comparable to that of perindopril on its own; LVEDPVR [1, 3]: 1.87*^† mmHg/RVU; LVESPVR [1, 3]: 20.63*^† mmHg/RVU |
| CCC[C@H](N[C@@H](C)C(=O)N1[C@H](C(=O)O)C[C@@H]2CCCC[C@@H]21)C(=O)OCC [perindopril] | very clearly improved | clearly improved | improves systolic function | 2.36^† mmHg/RVU | 5.17^† mmHg | 99 mmHg | 16.4^† mmHg/RVU | 142^† mL/min | 5.97 10^3 mmHg/s | 5.11 −10^3 mmHg/s | 17.1 % of the diameter of the LV | 388.2 bpm | 387.7 bpm | 7.31^† ms | effect on systolic function (in words) [1]: improves the systolic function; LVEDP ([1]; Table 4a): 6.88^† mmHg; LVEDPVR ([1]; Table 4a): 2.25^† mmHg/RVU; LVESP ([1]; Table 4a): 102^† mmHg; LVESPVR ([1]; Table 4a): 14.5^† mmHg/RVU; dP/dtmax ([1]; Table 4a): 6.08^† 10^3 mmHg/s; dP/dtmin ([1]; Table 4a): 4.99 −10^3 mmHg/s; tau ([1]; Table 4a): 10.92^† ms |
| COc1cc2c(cc1OC)CCN(C(=O)CCN(C)C[C@H]1Cc3cc(OC)c(OC)cc31)CC2 [compound A, N-{[(7S)-3,4-dimethoxybicyclo[4.2.0]octa-1,3,5-trien-7-yl]methyl}-3-(7,8-dimethoxy-1,2,4,5-tetrahydro-3H-3-benzazepin-3-yl)-N-methyl-3-oxo-1-propanamine] | very clearly improved | clearly improved | improves systolic function | 2.70^† mmHg/RVU | 4.89^† mmHg | 118 mmHg | 16.1^† mmHg/RVU | 127 mL/min | 6.78 10^3 mmHg/s | 5.87 −10^3 mmHg/s | 18.0 % of the diameter of the LV | 349.3 bpm | 342.7^† bpm | 8.37^† ms | effect on heart rate (in words) ([2]; vs untreated HF): significant reduction in heart rate |
